Assays:
[1] = system: caudal epididymal wild-type sperm; experiment: Ca2+ imaging of Fluo-4 loaded sperm, wild-type; format: cell-based, mouse
Experimental: (§1) For Ca^2+ imaging, sperm were prepared in HS medium (Wennemuth, et al. (2000), J Biol Chem 275, 21210-7) and loaded with 10 μM Fluo-4-AM and 0.05% Pluronic F-127 for 30 min. at room temperature. Washed cells were seeded onto Cell-Tak coated cover slips. Attached motile sperm were imaged in nonconfocal mode to avoid motion-induced fluorescence change artifacts. The 488 nm wavelength beam of an Argon-Krypton laser was used for excitation and fluorescence emission was collected at 512 nm (Zeiss LSM 410).
(§2) Wild-type and mutant sperm were loaded with Fluo-4 and their fluorescence measured by single photon confocal microscopy.

CatSper1^−/− sperm = experiment: Ca2+ imaging of Fluo-4 loaded sperm, CatSper1-/- mutant; format: cell-based, mouse
Experimental: as §1, §2

Compound: Nc1nc2c(nc(Br)n2[C@@H]2O[C@@H]3COP(=O)(O)O[C@H]3[C@H]2O)c(=O)[nH]1 [8-Br-cGMP]
- sperm head and tail [Ca^2+]i change (Fluo-4 fluorescence) ([1]; wild-type sperm, 1 mM membrane-permeant cyclic nucleotide in bath): initiated Ca^2+ influx in sperm
- cyclic nucleotide-induced Ca^2+ influx in mutant sperm (CatSper1^−/− sperm): neither cAMP nor cGMP elicited significant Ca^2+ influx

Compound: CC(=O)[C@H]1CC[C@H]2[C@@H]3CCC4=CC(=O)CC[C@]4(C)[C@H]3CC[C@]12C [progesterone]
- Ca^2+ influx (control for dye loading), wild-type sperm ([1]; wild-type sperm): initiated a large Ca^2+ influx
- Ca^2+ influx (control for dye loading), mutant sperm (CatSper1^−/− sperm): initiated a large Ca^2+ influx

Compound: CN[C@@H]1C[C@H]2O[C@@](C)([C@@H]1OC)n1c3ccccc3c3c4c(c5c6ccccc6n2c5c31)C(=O)NC4 [staurosporine]
- block of cyclic AMP and cyclic GMP induced [Ca^2+]i increase ([1]; sperm incubated with 1 μM, 10 minutes): not blocked

Compound: O=C([O-])O.[Na+] [sodium bicarbonate]
- [Ca^2+]i increase on addition to the bath ([1]; 20 mM in bath): induced an increase in [Ca^2+]i that was smaller than that observed with cyclic AMP or GMP

Source: patent US8852860B2, “Sperm-specific cation channel, CatSper1 and uses therefor” (Children's Medical Center Corporation, priority 2001, dated 2014)
